Assay [1] has as its target T1, recombinant his tagged human SphK1 (Homo sapiens, UniProt Q9NYA1).
T1 construct: His tag; made in house; host or cells: insect cells (baculovirus system)
As to the kind of experiment: SphK1 activity assay (32P-labelled S1P production). The format is biochemical. The note with it: 10 μM compound; % of activity compared to control (DMSO vehicle only). How it is done:
(§1) The SphK assays employed, measure SphK activity through the production of ^32P-labelled S1P following the addition of exogenous Sph and [γ^32P] ATP.
(§2) Activities of SphK1 and SphK2 were determined using identical assay conditions with the exception that SphK1 assays used 3 ng/assay recombinant his tagged human SphK1 (made in the lab in a baculovirus system using insect cells), while SphK2 assays used 30 ng/assay recombinant human SphK2 (purchased by Johnson and Johnson).
(§3) Compounds were dissolved in DMSO at 10 mM, the mixture was vortexed (and sonicated if necessary). Stock solutions were kept at 4° C. until used.
(§4) Aliquots were made containing 100 μM drug compound. These aliquots were then diluted in assay buffer: 100 mM tris/HCl pH 7.4, 100 mM NaCl, 1 mM sodium orthovanadate, 10 mM NaF to make up a 10 μM solution.
(§5) Recombinant enzyme was diluted in assay buffer (above) to make up a final concentration of 0.03 ng/μL (SphK1) or 0.33 ng/μL (SphK2).
(§6) 40 μL recombinant enzyme was added to an Eppendorf® Safe-Lock® microcentrifuge tube. This was followed by the addition of drug compound from prepared aliquots, before adding ATP, [γ^32P]ATP and Sph. Note: ATP stock is made up in 1M Tris pH 7.4 and 200 mM MgCl2. This allows ATP to complex with Mg and be available as a substrate.
(§7) The rest of the reaction mixture was then added to the enzyme sample (Table 1). All reactions were performed as triplicates.
(§8) Reaction mixture was prepared with sufficient volume to assay all of the required samples. To do this, each of the volumes shown was multiplied by n+1, where n is the number of samples to be assayed. Assay buffer used is made up of 100 mM tris/HCl pH 7.4, 100 mM NaCl, 1 mM sodium orthovanadate and 10 mM NaF.
(§9) The mixture was then incubated at 37° C. for 20 min (SphK1)/45 min (SphK2).
(§10) To the 100 μL assay mixture, add 270 μl of chloroform/methanol/conc. HCl (100:200:1).
(§11) 20 μL of 5 M KCl was then added to the assay mixture.
(§12) 70 μL of chloroform was added to create phase separation. The solution was vortexed to mix well.
(§13) The solution was then centrifuged for 5 min at 13,000×g to fully separate the phases.
(§14) The upper aqueous/methanol phase was separated by aspiration.
(§15) 50 μL of the remaining lower chloroform phase […] was applied onto the TLC plate by repeatedly spotting a few microliters of liquid (<5 mm diameter circle) between each sample spot with the pipette tip. The liquid was then allowed to absorb into the plate before drying with a stream of air.
(§16) The TLC plate was developed in a glass TLC developing tank with 1-butanol/ethanol/glacial acetic acid/H2O (8:2:1:2) until the mobile phase is within 1 cm of the top of the TLC plate.
(§17) The TLC plate was then exposed to a storage phosphor screen overnight. Storage phosphor screens work by capturing images produced by ionising radiation (e.g. ^32P). The phosphorimager stimulates the screen which uses lasers to convert the latent signal to light. Light is proportional to the amount of radioactivity in the sample. The image is then quantified using standard quantification software (ImageQuant™). Whatman paper with the assay mixture dilutions, was included to assist quantification of the phosphor signal.
(§18) Once the storage phosphor screen was read using the phosphorimager, S1P spots, which have an Rf of 0.7 with the mobile phase employed, were quantified.
(§19) The S1P spot intensity can be converted to the amount of phosphate transferred/min/mg protein.

In assay [2] the test system is PC3 prostate cancer cell lines. As to the kind of experiment: Anticancer activity in PC3 cell line, CellTitre AQueous One cell viability assay. The note with it: Homo sapiens, PC-3; concentration required to inhibit cell proliferation by 50%; 72 hours. It counts as cell-based. As for the experimental part:
Measurement of Anticancer Activity in PC3 Cell Line Assays
PC3 prostate cancer cell lines were cultured in DMEM (containing 10% fetal calf serum and penicillin-streptomycin).
Before treatment with drug compounds, cells were plated at 2,500 cells/well in 96 well plates and incubated at 37° C. with 5% CO2 in a humidified incubator for 24 hours prior. Cells were only plated in columns 3-10 and rows C—F to ensure uniform humidity and warmth across all wells. The remaining wells were filled with 100 μL of phosphate buffered saline.
Drug stock solutions (50 or 10 mM) were diluted×1000 in media to a final concentration of either 50 μM or 10 μM with a DMSO vehicle concentration of 0.1%.
Cell culture supernatants were aspirated and replaced with drug containing media. Drug treatments were performed in duplicate wells, while potential plate layout-specific variation in cell growth was accounted for by addition of a vehicle control (0.1% DMSO).
Cells were then incubated with drug compounds at 37° C. with 5% CO2 in a humidified incubator for 72 hours prior to assay.
Media was diluted with CellTitre AQueous One Solution (Promega, Australia; Cat # G3580) according to manufacturer's instructions to produce a final concentration of 317 μg/mL.
Cell culture supernatants were then aspirated from wells and replaced with 100 μL of CellTitre solution. Triplicate cell-free control wells containing only CellTitre solution were also included in each assay.
Cells were then incubated at 37° C. with 5% CO2 in a humidified incubator for 1 hour at which time absorbance was read at 490 nm with an EnVision microplate reader (Perkin Elmer, Australia).
When analysing data, background absorbance (taken from cell-free control wells) was subtracted from each reading. […] For each drug concentration the mean (±SEM) is calculated and graphed using GraphPad Prism (version 5). A sigmoidal curved is fitted to the data and used to calculate the IC50 of each compound.

The target in a further assay is T2, recombinant human SphK2 (Homo sapiens, UniProt Q9NRA0).
T2 construct: purchased Johnson and Johnson
T2 sequence (Q9NRA0 1-654): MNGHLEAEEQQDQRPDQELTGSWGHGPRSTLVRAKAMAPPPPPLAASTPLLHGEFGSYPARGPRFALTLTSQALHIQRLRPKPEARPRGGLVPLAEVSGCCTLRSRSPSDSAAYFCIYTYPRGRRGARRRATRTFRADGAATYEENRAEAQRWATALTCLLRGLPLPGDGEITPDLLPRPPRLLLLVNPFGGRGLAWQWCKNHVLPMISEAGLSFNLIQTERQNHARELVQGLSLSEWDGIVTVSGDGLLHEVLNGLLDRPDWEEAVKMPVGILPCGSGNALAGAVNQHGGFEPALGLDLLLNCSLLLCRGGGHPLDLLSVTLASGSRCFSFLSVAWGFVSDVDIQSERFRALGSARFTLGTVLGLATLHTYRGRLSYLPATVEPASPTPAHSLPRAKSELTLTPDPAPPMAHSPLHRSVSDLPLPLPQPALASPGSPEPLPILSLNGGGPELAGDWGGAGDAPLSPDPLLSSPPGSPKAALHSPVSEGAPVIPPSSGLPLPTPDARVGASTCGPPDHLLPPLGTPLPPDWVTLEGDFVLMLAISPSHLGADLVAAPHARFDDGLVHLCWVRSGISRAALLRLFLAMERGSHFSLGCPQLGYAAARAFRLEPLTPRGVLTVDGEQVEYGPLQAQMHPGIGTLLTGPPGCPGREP
As to the kind of experiment: SphK2 activity assay (32P-labelled S1P production). The format is biochemical. The note with it: 10 μM compound; % of activity compared to control (DMSO vehicle only); read-out: SphK2% actvity at 10 μm. How it is done: as §1, §2, §3, §4, §5, §6, §7, §8, §9, §10, §11, §12, §13, §14, §15, §16, §17, §18, §19

Assay [3] has as its target T3, Dihydroceramide Desaturase-1 (Des1) (Homo sapiens, UniProt O15121).
T3 construct: These modifications included the use of parental Jurkat cells; endogenous in cells; host or cells: parental Jurkat cells
T3 sequence (O15121 1-323): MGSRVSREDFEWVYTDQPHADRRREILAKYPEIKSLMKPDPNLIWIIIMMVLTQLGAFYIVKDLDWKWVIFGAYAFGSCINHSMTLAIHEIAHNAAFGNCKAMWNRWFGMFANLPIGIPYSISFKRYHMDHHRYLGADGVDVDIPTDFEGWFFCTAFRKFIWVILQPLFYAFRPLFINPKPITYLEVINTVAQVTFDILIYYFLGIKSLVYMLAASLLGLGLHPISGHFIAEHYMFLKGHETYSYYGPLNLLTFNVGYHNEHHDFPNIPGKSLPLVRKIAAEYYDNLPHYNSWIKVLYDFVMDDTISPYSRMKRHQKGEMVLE
As to the kind of experiment: Dihydroceramide desaturase-1 (Des1) activity by HPLC in intact Jurkat cells labeled with DhCer-C6-NBD. It counts as cell-based. How it is done: Measurement of Dihydroceramide Desaturase-1 (Des1) Activity:
These modifications included the use of parental Jurkat cells, 0.5% serum in the culture media, and cell harvesting via centrifugation at 500×g to maximise ceramide extraction. Extracted samples (50 ul) were analysed on a Waters HPLC coupled to a fluorescence detector using a 30 cm C18 reverse-phase column eluted with 1 ml/min 20% H2O and 80% acetonitrile, both with a 0.1% of trifluoroacetic acid.

[4] abbreviates: intact Jurkat cells, read-out: Des 1 IC50.

Read-outs that look alike come from different tables or passages of the source. Bounds are passed on as bounds.

T1 sequence (Q9NYA1 whole entry): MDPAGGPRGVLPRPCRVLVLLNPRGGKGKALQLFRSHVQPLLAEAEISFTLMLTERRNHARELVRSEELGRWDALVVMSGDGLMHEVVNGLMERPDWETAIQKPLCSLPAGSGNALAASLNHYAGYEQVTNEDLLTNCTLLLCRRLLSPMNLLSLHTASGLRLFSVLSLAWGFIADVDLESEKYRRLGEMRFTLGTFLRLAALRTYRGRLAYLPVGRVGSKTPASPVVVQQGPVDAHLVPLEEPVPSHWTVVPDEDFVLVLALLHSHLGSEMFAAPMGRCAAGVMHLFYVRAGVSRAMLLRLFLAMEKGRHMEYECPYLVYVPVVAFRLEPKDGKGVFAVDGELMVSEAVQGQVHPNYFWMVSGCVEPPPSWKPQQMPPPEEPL

Consider `O=C(Nc1ccc(-c2nnc(-c3ccc(Cl)cc3)o2)cc1)[C@H]1NCC[C@@H]1O` [Example E-12, (2S,3S)-2-((4-(5-(4-chlorophenyl)-1,3,4-oxadiazol-2-yl)phenyl)carbamoyl)-3-hydroxypyrrolidin-1-ium chloride], for which, in assay [1], the activity at 10 µM lay in the range of 50 to 80%. Also, in assay [2], the IC50 is > 100 µM. At recombinant human SphK2, the remaining activity at 10 µM was in the range of 20 to 50%.
Take `O=C(Nc1ccc(O)cc1)c1csc(-c2ccc(Cl)cc2)n1` [Example E-6, 2-(4-Chlorophenyl)-N-(4-hydroxyphenyl)thiazole-4-carboxamide]: the activity at 10 µM in assay [1] was in the range of 20 to 50%. Besides, in assay [2], the IC50 is > 100 µM. The remaining activity at 10 µM at recombinant human SphK2 fell in the range of 50 to 80%.
The like results for `N=C(N)c1ccc(Nc2nnc(-c3ccccc3)o2)cc1` [Example E-20, Amino(4-((5-phenyl-1,3,4-oxadiazol-2-yl)amino)phenyl)methaniminium chloride] were, in that order, 80 to 100%, > 100 µM and 20 to 50%.
For `Oc1ccc(Nc2nsc(-c3ccc(Cl)cc3)n2)cc1` [Example E-31, 4-((5-(4-chlorophenyl)-1,2,4-thiadiazol-3-yl)amino)phenol], in assay [3] (setting [4]), the IC50 lay within 0.1 to 1 µM.
Still for that read-out and setting: in the case of `N/C(=N\O)c1ccc(Nc2nnc(-c3ccc(Cl)cc3)o2)cc1` [Example E-9, (Z)-4-((5-(4-Chlorophenyl)-1,3,4-oxadiazol-2-yl)amino)-N′-hydroxybenzimidamide] it was 1 to 10 µM.
`Oc1ccc(Nc2nnc(-c3ccc(C(F)(F)F)cc3)o2)cc1` [Example E-26, 4-((5-(4-(Trifluoromethyl)phenyl)-1,3,4-oxadiazol-2-yl)amino)phenol] yielded a concentration for half-maximal inhibition (IC50) in assay [3] of 0.1 to 1 µM.
As for `Oc1ccc(Nc2nc(-c3ccc(Cl)cc3)no2)cc1` [Example E-4, 4-((3-(4-Chlorophenyl)-1,2,4-oxadiazol-5-yl)amino)phenol], the IC50 in assay [3] (setting [4]) fell in the range of 1 to 10 µM.
Still for that read-out and setting: in the case of `Oc1ccc(Nc2noc(-c3ccc(Cl)cc3)n2)cc1` [Example E-3, 4-((5-(4-Chlorophenyl)-1,2,4-oxadiazol-3-yl)amino)phenol] it was 1 to 10 µM.
Still for that read-out and setting: the same measure for `Oc1ccc(Nc2nnc(-c3ccc(Cl)cc3)o2)cc1` [Example E-1, 5-(4-Chlorophenyl)-N-(4-hydroxyphenyl)-1,3,4-oxadiazol-2-amine]: 0.1 to 1 µM; for `Oc1ccc(Nc2nnc(-c3ccc(Cl)cc3)s2)cc1` [Example E-2, 4-((5-(4-Chlorophenyl)-1,3,4-thiadiazol-2-yl)amino)phenol]: 1 to 10 µM.
For the molecule `Cc1nc(-c2ccc(Nc3nnc(-c4ccc(Cl)cc4)o3)cc2)no1` [Example E-10, 5-(4-Chlorophenyl)-N-(4-(5-methyl-1,2,4-oxadiazol-3-yl)phenyl)-1,3,4-oxadiazol-2-amine], the activity at 10 µM in assay [1] fell in the range of 80 to 100%. In addition, the IC50 in assay [2] was > 100 µM. The remaining activity at 10 µM on recombinant human SphK2 was in the range of 50 to 80%.
As to `Oc1ccc(Nc2nc(-c3ccc(Cl)cc3)ns2)cc1` [Example E-32, 4-((3-(4-chlorophenyl)-1,2,4-thiadiazol-5-yl)amino)phenol], in assay [3] (setting [4]), the 50% inhibitory concentration (IC50) lay within 0.1 to 1 µM.
Regarding `Cl.N=C(N)c1ccc(Nc2nnc(-c3ccc(Cl)cc3)o2)cc1` [Example E-23, Amino(4-((5-(4-chlorophenyl)-1,3,4-oxadiazol-2-yl)amino)phenyl)methaniminium chloride], in assay [3] (intact Jurkat cells), the “Des 1 IC50” value is “inactive”.
Turning to `Oc1ccc(Nc2nnc(-c3ccc(I)cc3)o2)cc1` [Example E-24, 4-((5-(4-Iodophenyl)-1,3,4-oxadiazol-2-yl)amino)phenol], in assay [3] (setting [4]), the IC50 lay within 1 to 10 µM.
For the molecule `N=C(N)c1ccc(-c2nnc(-c3ccccc3)o2)cc1` [Example E-17, Amino(4-(5-phenyl-1,3,4-oxadiazol-2-yl)phenyl)methaniminium chloride], in assay [1], the activity at 10 µM is 200 to 300%. In addition, the 50% inhibitory concentration (IC50) in assay [2] was > 100 µM. The remaining activity at 10 µM at recombinant human SphK2 is 80 to 100%.
In the case of `Clc1ccc(-c2nnc(NCc3ccncc3)o2)cc1` [Example E-30, 5-(4-Chlorophenyl)-N-(pyridin-4-ylmethyl)-1,3,4-oxadiazol-2-amine], the activity at 10 µM in assay [1] lay within 1 to 5%. The IC50 in assay [2] is > 100 µM. Moreover, the remaining activity at 10 µM at recombinant human SphK2 fell in the range of 20 to 50%.

Source of the values: patent US9828351B2, “Enzyme interacting agents” (MONASH UNIVERSITY, priority 2014, dated 2017).
